# ChEMBL document CHEMBL6177968, “Development of sulfamoylbenzamide-based capsid assembly modulators for hepatitis B virus capsid assembly” (Eur J Med Chem, 2025)
# Active and inactive are the calls of the source. The calls are words filed in the database; no cut-off is given here.
# Experiments:
# [1] = Metabolic stability in human liver microsomes assessed as compound remaining measured after 30 mins; assay type: ADME, Microsome; conditions: read-out: Stability
# [2] = Volume of distribution at steady state in male mouse at 5 mg/kg, iv; assay type: ADME, organism-based; conditions: in vivo, read-out: Vdss
# [3] = Half life in male mouse at 5 mg/kg, po; assay type: ADME, organism-based; conditions: in vivo
# [4] = AUClast in male mouse at 20 mg/kg, iv; assay type: ADME, organism-based; conditions: in vivo
# [5] = Clearance in male mouse at 5 mg/kg, iv; assay type: ADME, organism-based; conditions: in vivo
# Cytochrome P450 2D6 = Cytochrome P450 2D6 (Homo sapiens, UniProt P10635); experiment: Inhibition of CYP2D6 in human liver microsome; assay type: ADME, microsomes
# Sequence of Cytochrome P450 2D6 (P10635 whole entry): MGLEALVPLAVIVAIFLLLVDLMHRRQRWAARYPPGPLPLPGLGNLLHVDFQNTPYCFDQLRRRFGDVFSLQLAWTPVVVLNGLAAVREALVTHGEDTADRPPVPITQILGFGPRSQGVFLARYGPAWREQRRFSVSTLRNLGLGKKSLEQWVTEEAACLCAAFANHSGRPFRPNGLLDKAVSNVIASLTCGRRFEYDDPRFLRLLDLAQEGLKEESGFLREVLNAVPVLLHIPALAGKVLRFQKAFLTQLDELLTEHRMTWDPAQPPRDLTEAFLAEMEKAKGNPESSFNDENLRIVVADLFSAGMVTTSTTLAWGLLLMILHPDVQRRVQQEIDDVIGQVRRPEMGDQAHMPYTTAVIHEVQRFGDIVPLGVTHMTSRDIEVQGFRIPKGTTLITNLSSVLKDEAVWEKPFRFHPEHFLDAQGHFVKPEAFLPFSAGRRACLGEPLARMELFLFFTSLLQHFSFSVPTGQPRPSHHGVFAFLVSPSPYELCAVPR
# [6] = Plasma protein binding in human; assay type: ADME, cell-free; conditions: read-out: PPB (converted)
# [7] = molecular target: Core antigen (Hepatitis B virus) (UniProt Q03732); experiment: Binding affinity to HBV core protein dimers extracted from Escherichia coli assessed as retention volume at peak of capsid assembly by size exclusion chromatography (reference value: 8.63 mL)
# Sequence of Core antigen (Hepatitis B virus) (Q03732 as listed by the source): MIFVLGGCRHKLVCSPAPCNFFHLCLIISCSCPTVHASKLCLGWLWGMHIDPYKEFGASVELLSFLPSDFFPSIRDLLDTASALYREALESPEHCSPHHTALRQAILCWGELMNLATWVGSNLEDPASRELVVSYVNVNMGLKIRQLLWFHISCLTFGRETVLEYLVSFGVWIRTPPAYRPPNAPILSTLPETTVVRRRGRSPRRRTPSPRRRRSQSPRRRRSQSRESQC
# [8] = Selectivity index, ratio of CC50 for cytotoxicity in human HepG2-hNTCP cells assessed as reduction in cell viability to EC50 for antiviral activity against HBV in human HepG2-hNTCP cells assessed as reduction in viral replication; assay type: toxicity, cell-based; conditions: read-out: Ratio CC50/EC50
# [9] = AUClast in male mouse at 5 mg/kg, po; assay type: ADME, organism-based; conditions: in vivo
# Hepatitis B virus [10] = experiment: Antiviral activity against HBV infected in human HepG2 cells expressing NTCP assessed as ratio of capsid associated HBV DNA level at 1 uM incubated for 6 days by Western blot analysis (reference value: 100 %); assay type: functional; conditions: time 6 day
# [11] = Cytotoxicity in African green monkey Vero cells; assay type: toxicity, cell-based, Chlorocebus sabaeus
# [12] = Oral bioavailability in male mouse at 20 mg/kg; assay type: ADME, organism-based; conditions: in vivo
# [13] = Stability in human plasma assessed as compound remaining incubated for 4 hrs; assay type: ADME, cell-free; conditions: read-out: Stability
# Hepatitis B virus [14] = experiment: Antiviral activity against HBV in human HepaRG cells assessed as reduction in viral replication; assay type: functional, organism-based
# [15] = Cmax in male mouse at 5 mg/kg, po; assay type: ADME, organism-based; conditions: in vivo
# HepG2 [16] = experiment: Effect on viral dslDNA level in human HepG2 cells expressing NTCP infected with HBV at 1 uM incubated for 6 days by Southern blot analysis; assay type: functional, cell-based; conditions: time 6.0 day
# [17] = Metabolic stability in rat liver microsomes assessed as compound remaining measured after 30 mins; assay type: ADME, Microsome; conditions: read-out: Stability
# [18] = Cytotoxicity in mouse NIH3T3 cells; assay type: toxicity, cell-based
# [19] = AUClast in male mouse at 20 mg/kg, po; assay type: ADME, organism-based; conditions: in vivo
# [20] = Cytotoxicity in human HepG2-hNTCP cells assessed as reduction in cell viability; assay type: toxicity, cell-based
# [21] = Half life in male mouse at 20 mg/kg, po; assay type: ADME, organism-based; conditions: in vivo
# [22] = Cytotoxicity in mouse L929 cells; assay type: toxicity, cell-based
# [23] = AUC (0 to infinity) in male mouse at 20 mg/kg, iv; assay type: ADME, organism-based; conditions: in vivo
# [24] = AUClast in male mouse at 5 mg/kg, iv; assay type: ADME, organism-based; conditions: in vivo
# Cytochrome P450 3A4 = Cytochrome P450 3A4 (Homo sapiens, UniProt P08684); experiment: Inhibition of CYP3A4 in human liver microsome; assay type: ADME, microsomes
# Sequence of Cytochrome P450 3A4 (P08684 whole entry): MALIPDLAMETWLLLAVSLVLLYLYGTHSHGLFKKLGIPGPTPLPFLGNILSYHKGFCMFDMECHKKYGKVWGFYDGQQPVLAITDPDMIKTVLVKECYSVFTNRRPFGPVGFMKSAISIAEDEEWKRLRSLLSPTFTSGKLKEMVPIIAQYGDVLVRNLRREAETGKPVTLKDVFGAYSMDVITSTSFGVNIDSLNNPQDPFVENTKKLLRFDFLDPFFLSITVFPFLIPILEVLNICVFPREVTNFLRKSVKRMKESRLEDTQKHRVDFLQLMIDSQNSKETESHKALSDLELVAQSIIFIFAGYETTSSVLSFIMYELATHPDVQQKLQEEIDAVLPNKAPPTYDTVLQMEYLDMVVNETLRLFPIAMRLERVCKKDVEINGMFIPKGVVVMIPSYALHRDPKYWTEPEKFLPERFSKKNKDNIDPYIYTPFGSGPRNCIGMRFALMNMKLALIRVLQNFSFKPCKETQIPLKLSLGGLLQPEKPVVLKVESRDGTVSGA
# [25] = Half life in male mouse at 20 mg/kg, iv; assay type: ADME, organism-based; conditions: in vivo
# [26] = Cmax in male mouse at 20 mg/kg, po; assay type: ADME, organism-based; conditions: in vivo
# [27] = molecular target: Core antigen (Hepatitis B virus) (UniProt Q03732); experiment: Binding affinity to HBV core protein dimers extracted from Escherichia coli assessed as clump formation of assembled capsids by negative staining electron microscopic analysis
# [28] = Tmax in male mouse at 5 mg/kg, po; assay type: ADME, organism-based; conditions: in vivo
# Hepatitis B virus [29] = experiment: Antiviral activity against HBV in human HepG2.2.15 cells assessed as reduction in viral replication incubated for 5 days by real-time PCR analysis; assay type: functional, organism-based; conditions: HepG2.2.15, 120 h
# [30] = molecular target: Voltage-gated inwardly rectifying potassium channel KCNH2 (Homo sapiens, UniProt Q12809); experiment: Inhibition of human ERG; assay type: toxicity
# Sequence of Voltage-gated inwardly rectifying potassium channel KCNH2 (Q12809 whole entry): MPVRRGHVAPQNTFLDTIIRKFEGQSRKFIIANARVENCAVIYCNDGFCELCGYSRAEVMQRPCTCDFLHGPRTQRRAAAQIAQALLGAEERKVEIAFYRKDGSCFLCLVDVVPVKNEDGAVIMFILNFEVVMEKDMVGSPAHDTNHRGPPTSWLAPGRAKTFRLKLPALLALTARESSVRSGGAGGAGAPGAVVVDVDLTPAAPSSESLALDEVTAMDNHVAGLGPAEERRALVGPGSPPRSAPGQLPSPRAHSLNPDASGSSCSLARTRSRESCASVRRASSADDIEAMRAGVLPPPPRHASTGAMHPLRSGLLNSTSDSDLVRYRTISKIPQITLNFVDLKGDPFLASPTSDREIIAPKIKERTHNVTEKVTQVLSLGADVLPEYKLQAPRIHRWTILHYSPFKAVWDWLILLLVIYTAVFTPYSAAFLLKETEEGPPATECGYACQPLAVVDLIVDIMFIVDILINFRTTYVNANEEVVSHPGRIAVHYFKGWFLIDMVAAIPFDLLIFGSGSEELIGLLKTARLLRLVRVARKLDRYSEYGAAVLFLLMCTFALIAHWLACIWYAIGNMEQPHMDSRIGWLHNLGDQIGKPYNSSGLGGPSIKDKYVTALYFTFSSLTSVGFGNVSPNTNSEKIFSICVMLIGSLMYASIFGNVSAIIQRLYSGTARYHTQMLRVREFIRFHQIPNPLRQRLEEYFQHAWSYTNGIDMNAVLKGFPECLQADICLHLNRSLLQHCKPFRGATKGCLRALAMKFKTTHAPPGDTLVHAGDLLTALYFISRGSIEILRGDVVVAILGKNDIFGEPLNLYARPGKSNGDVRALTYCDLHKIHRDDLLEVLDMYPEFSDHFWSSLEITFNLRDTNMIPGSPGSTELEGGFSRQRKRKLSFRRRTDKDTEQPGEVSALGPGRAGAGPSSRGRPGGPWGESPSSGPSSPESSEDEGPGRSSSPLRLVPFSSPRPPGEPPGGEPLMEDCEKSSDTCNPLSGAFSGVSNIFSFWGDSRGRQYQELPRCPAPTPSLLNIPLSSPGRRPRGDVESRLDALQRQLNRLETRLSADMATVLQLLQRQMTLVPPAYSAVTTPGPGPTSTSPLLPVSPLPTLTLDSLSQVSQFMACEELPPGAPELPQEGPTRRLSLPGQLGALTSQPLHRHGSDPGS
# HepG2 [31] = experiment: Effect on viral ssDNA level in human HepG2 cells expressing NTCP cells infected with HBV at 1 uM incubated for 6 days by Southern blot analysis; assay type: functional, cell-based; conditions: time 6.0 day
# Hepatitis B virus [32] = experiment: Antiviral activity against HBV in human HepG2 cells expressing NTCP assessed as reduction in viral replication; assay type: functional, organism-based
# Cytochrome P450 2C9 = Cytochrome P450 2C9 (Homo sapiens, UniProt P11712); experiment: Inhibition of CYP2C9 in human liver microsome; assay type: ADME, microsomes
# Sequence of Cytochrome P450 2C9 (P11712 whole entry): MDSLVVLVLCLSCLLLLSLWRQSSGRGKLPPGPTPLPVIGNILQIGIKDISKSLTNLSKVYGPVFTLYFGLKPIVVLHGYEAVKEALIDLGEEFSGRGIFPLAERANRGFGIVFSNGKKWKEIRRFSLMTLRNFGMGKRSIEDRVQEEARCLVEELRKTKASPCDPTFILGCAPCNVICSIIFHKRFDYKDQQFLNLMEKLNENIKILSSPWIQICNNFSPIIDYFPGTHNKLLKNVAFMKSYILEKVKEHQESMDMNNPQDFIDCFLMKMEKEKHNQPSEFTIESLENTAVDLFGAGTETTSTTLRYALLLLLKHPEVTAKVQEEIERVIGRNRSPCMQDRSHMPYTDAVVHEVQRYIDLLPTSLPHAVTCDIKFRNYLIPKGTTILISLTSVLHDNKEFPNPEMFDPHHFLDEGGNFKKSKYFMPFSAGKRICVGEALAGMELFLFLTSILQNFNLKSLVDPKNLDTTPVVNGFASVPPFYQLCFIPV
# [33] = Tmax in male mouse at 20 mg/kg, po; assay type: ADME, organism-based; conditions: in vivo
# [34] = Plasma protein binding in mouse; assay type: ADME, cell-free; conditions: read-out: PPB (converted)
# HepG2 [35] = experiment: Effect on viral rcDNA level in human HepG2 cells expressing NTCP infected with HBV at 1 uM incubated for 6 days by Southern blot analysis; assay type: functional, cell-based; conditions: time 6.0 day
# Hepatitis B virus [36] = experiment: Antiviral activity against HBV infected in human HepG2 cells expressing NTCP assessed as capsid level at 1 uM incubated for 6 days by Western blot analysis (reference value: 100 %); assay type: functional; conditions: time 6 day
# [37] = AUC (0 to infinity) in male mouse at 5 mg/kg, iv; assay type: ADME, organism-based; conditions: in vivo
# Cytochrome P450 1A2 = molecular target: T1, Cytochrome P450 1A2 (Homo sapiens, UniProt P05177); experiment: Inhibition of CYP1A2 in human liver microsome; assay type: ADME, microsomes
# T1 sequence (P05177 whole entry): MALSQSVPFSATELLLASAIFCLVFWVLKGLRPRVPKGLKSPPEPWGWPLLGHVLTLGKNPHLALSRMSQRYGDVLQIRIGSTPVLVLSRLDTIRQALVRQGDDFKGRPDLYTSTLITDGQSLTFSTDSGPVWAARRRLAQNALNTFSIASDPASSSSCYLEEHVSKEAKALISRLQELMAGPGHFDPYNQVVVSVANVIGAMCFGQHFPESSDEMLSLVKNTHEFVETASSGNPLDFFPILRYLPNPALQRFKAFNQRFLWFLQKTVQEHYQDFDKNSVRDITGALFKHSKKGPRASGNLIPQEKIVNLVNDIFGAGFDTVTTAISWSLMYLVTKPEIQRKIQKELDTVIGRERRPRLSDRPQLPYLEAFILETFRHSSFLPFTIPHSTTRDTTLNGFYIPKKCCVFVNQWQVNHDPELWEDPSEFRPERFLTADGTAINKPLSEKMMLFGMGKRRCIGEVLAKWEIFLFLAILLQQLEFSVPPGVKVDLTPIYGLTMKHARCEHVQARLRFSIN
# [38] = Stability in mouse plasma assessed as compound remaining incubated for 4 hrs; assay type: ADME, cell-free; conditions: read-out: Stability
# [39] = Cytotoxicity in CHO-K1 cells; assay type: toxicity, cell-based, Cricetulus griseus; conditions: Chinese hamster
# Cytochrome P450 2C19 = Cytochrome P450 2C19 (Homo sapiens, UniProt P33261); experiment: Inhibition of CYP2C19 in human liver microsome; assay type: ADME, microsomes
# Sequence of Cytochrome P450 2C19 (P33261 whole entry): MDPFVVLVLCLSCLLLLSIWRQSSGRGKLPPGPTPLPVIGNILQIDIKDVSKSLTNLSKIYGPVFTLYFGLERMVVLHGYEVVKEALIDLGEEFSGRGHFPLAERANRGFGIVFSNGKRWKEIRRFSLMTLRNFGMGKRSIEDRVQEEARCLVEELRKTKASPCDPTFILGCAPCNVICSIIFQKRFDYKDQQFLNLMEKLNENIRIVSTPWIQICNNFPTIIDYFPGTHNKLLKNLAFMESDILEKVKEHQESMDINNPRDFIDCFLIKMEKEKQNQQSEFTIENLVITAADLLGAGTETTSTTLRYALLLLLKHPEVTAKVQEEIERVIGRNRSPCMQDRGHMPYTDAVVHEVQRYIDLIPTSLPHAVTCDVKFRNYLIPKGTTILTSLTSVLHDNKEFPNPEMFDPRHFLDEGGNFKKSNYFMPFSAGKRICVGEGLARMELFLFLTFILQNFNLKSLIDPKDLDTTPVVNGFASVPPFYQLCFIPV
# [40] = Volume of distribution at steady state in male mouse at 20 mg/kg, iv; assay type: ADME, organism-based; conditions: in vivo, read-out: Vdss
# [41] = AUC (0 to infinity) in male mouse at 20 mg/kg, po; assay type: ADME, organism-based; conditions: in vivo
# [42] = Selectivity index, ratio of CC50 for cytotoxicity in human HepaRG cells assessed as reduction in cell viability to EC50 for antiviral activity against HBV in human HepaRG cells assessed as reduction in viral replication; assay type: toxicity, cell-based; conditions: read-out: Ratio CC50/EC50
structure (smiles),measurement,setting,value
Nc1cc(F)c(S(=O)(=O)NC2COC2)cc1C(=O)Nc1ccc(F)c(C(F)F)c1,remaining at 0.5 h,[1],> 100%
same,Vd,[2],29.1 L/kg
same,half-life,[3],55.2 min
same,AUC(0-t),[4],4610 ng·h/mL
same,clearance,[5],92.7 mL/min/kg
same,IC50,Cytochrome P450 2D6,> 100 µM
same,fraction unbound,[6],0.128
same,Activity,[7],8.62 mL
same,selectivity ratio,[8],3160
same,AUC(0-t),[9],560 ng·h/mL
same,Ratio,Hepatitis B virus [10],6%
same,IC50,[11],> 100 µM
same,bioavailability,[12],5.89%
same,remaining at 4 h,[13],94%
same,EC50,Hepatitis B virus [14],0.1 µM
same,Cmax,[15],540 ng/mL
same,Activity,HepG2 [16],No effect
same,remaining at 0.5 h,[17],45.4%
same,IC50,[18],> 100 µM
same,AUC(0-t),[19],270 ng·h/mL
same,CC50,[20],63.2 µM
same,half-life,[21],52.2 min
same,IC50,[22],> 100 µM
same,AUC(0-inf),[23],5460 ng·h/mL
same,AUC(0-t),[24],850 ng·h/mL
same,IC50,Cytochrome P450 3A4,> 100 µM
same,half-life,[25],576 min
same,Cmax,[26],370 ng/mL
same,Activity,[27],Active
same,Tmax,[28],15 min
same,EC50,Hepatitis B virus [29],0.05 µM
same,IC50,[30],> 10 µM
same,Activity,HepG2 [31],No effect
same,EC50,Hepatitis B virus [32],0.02 µM
same,IC50,Cytochrome P450 2C9,> 100 µM
same,Tmax,[33],25.2 min
same,fraction unbound,[34],0.143
same,Activity,HepG2 [35],No effect
same,Activity,Hepatitis B virus [36],205%
same,AUC(0-inf),[37],900 ng·h/mL
same,IC50,Cytochrome P450 1A2,> 100 µM
same,remaining at 4 h,[38],94.5%
same,IC50,[39],> 100 µM
same,IC50,Cytochrome P450 2C19,> 100 µM
same,Vd,[40],46.5 L/kg
same,AUC(0-inf),[41],280 ng·h/mL
same,selectivity ratio,[42],> 100
